Experimental data: patent US12186361B2, “Method and formulation for inhalation” (Monash University, priority 2011, dated 2025)

Legend:
[1] = system: uterine contraction (uterine EMG activity); test: In vivo uterine EMG activity after oxytocin delivery in post-partum ewes (Example 5); set-up: species or system sheep; conditions: for delay from oxytocin administration to uterine contractile response (first EMG burst): post-partum ewes, n=5, average
From the text: On day 135 gestational age, pregnant ewes (n=5) were anaesthetised with thiopentone in preparation for surgery. Isuflorane (2.5% in oxygen) was used to maintain anaesthesia and depomycin, procaine penicillin and dihydrostreptomycin were given for pain relief and to reduce the risk of infection. Each ewe was shaved and a 10 cm incision was made in the abdominal skin at the midline below the navel to expose the uterine wall, with care taken to avoid large blood vessels.
Three sterile stainless steel wires for measuring electromyographical (EMG) activity (0.07 mm diameter, inside a 2 mm catheter) were embedded in the smooth muscle layer of the myometrium surrounding the womb and held there by two stitches. The electrodes were passed through a catheter and out of the ewe via a small incision (2 cm) through the right flank. A catheter was inserted in the right jugular to allow for blood samples and to induce labour. Ewes were returned to metabolic cages and given 3-5 days to recover from surgery.
Labour was induced with two 5 ml intravenous injections of dexamethasone (consisting of 5 mg of dexamethasone phosphate and 10 mg of dexamethasone phenylpropionate) 24 hours apart. Labour occurred 54±2 hours after the first dexamethasone injection.
Oxytocin administrations, as detailed above, were performed within 15 hours of delivery. Each sheep received an intra-tracheal dose of dry powder oxytocin formulation, an intra-tracheal instillation of oxytocin in solution and an intramuscular injection of oxytocin. There was at least a one and a half hour washout period between each treatment.
For intra-tracheal administration, an endoscope was passed through the nasal passage into the trachea and positioned near the first bronchial bifurcation, where either a 1 mL aliquot of oxytocin in solution (10 IU) was released or 10 mg (average) of dry powder was delivered through a modified PennCentury powder delivery device.
The dry powder formulation comprised a spray dried composition, as described in example 1. This powder contained 13 units of oxytocin per mg by mass, co-spray dried with equal proportions by mass of mannitol, glycine and leucine.
During this procedure, bronchoscope video images were captured using a Linvatec IM3301 Pal Video Camera attached to an endoscope (Pentax FG-16X), which was saved as a digital file onto a computer using Video Capture Software.
A cyberamp 380 in conjunction with MACLAB hardware (400 Hz Sample rate) and Chart 4 software (10V Input range) was used to display and record action potential originating from smooth muscle cells within the uterus. The cyberamp 380 used the AI401probe with positive input set at AC and negative input set at Ground. The AC cut off was 10 Hz and the prefilter gain set at 100 mV. The low pass filter was set at 300 Hz, the notch filter set to off, the output gain set to 5 and the total gain left at 500. Two way repeated measure ANOVA was performed to determine the statistical significance of our data.

[2] = Oxytocin stability: LC/MS assay content recovered after TSI experiments; format: physicochemical; conditions: all TSI stages, capsules and inhalation devices, after spray drying at 70° C. outlet
Experimental: All five capsules were activated into the same TSI. The used capsules and the inhalers were then washed with Milli-Q water into a 100 mL volumetric flask and made up to volume. This was called the ‘residual’ stage. The parts that made up Stage 1 (parts A, B, C and D) were washed into a 200 mL volumetric flask and the parts that made up Stage 2 (parts E, F, G and H) were washed into a 50 mL volumetric flask with Milli-Q water and called ‘stage 1’ and ‘stage 2’ respectively. The amounts of oxytocin in each stage of the TSI were determined by LC/MS assay. The fine particle fraction (FPF) was calculated as the amount of powder that had reached stage 2 of the TSI apparatus divided by total amount of drug that was assayed. This test was the most important measure as it can determine whether a powder containing oxytocin can be formulated with suitable aerosol deposition, and consequent absorption from the lung.
Peptides can potentially be denatured due to extreme heat. From the tests that were conducted in this study, the only indication as to oxytocin stability was the LC/MS assay content following the TSI experiments.

[3] = pulmonary versus IM delivery and post-partum activity

Structure (SMILES): CC[C@H](C)[C@@H]1NC(=O)[C@H](Cc2ccc(O)cc2)NC(=O)[C@@H](N)CSSC[C@@H](C(=O)N2CCC[C@H]2C(=O)N[C@@H](CC(C)C)C(=O)NCC(N)=O)NC(=O)[C@H](CC(N)=O)NC(=O)[C@H](CCC(N)=O)NC1=O [oxytocin]
- total duration of EMG activity ([1]; IM compared to airway delivery and normal post-partum activity): significantly longer
- delay from oxytocin administration to uterine contractile response (first EMG burst) ([1]; IM delivery): approximately 250 seconds
- delay from oxytocin administration to uterine contractile response (first EMG burst) ([1]; pulmonary (intra-tracheal) delivery): faster time of onset
- length of the initial burst of EMG activity [1, 3]: No differences
- number of bursts over the first 30 minutes following the initial burst [1, 3]: nor was there a difference
- oxytocin recovered of the initial capsule's dose [2]: 90.23±5.41%
